In US11273172B2, “Synergistic combination of oligonucleotides and chemotherapeutic for treating cancer” (THE BOARD OF TRUSTEES OF THE UNIVERSITY OF ILLINOIS, priority 2017, dated 2022):
Where “and” joins values, the source holds several entries; their conditions need not be identical. Identical values can stand only once.

B1: TRAIL: cytotoxic protein which induces apoptosis in tumor cells, but not in normal cells (protein, UniProt P50591 1-281, looked up)
Tumor necrosis factor ligand …: MAMMEVQGGPSLGQTCVLIVIFTVLLQSLCVAVTYVYFTNELKQMQDKYSKSGIACFLKEDDSYWDPNDEESMNSPCWQVKWQLRQLVRKMILRTSEETISTVQEKQQNISPLVRERGPQRVAAHITGTRGRSNTLSSPNSKNEKALGRKINSWESSRSGHSFLSNLHLRNGELVIHEKGFYYIYSQTYFRFQEEIKENTKNDKQMVQYIYKYTSYPDPILLMKSARNSCWSKDAEYGLYSIYQGGIFELKENDRIFVSVTNEHLIDMDHEASFFGAFLVG

Key:
Assay in all cases: MTT cell death assay, chemotherapeutic with and without MADD siRNA knockdown
Assay type in all cases: cell-based
[1] = system: AGS gastric adenocarcinoma cells; details: siRNA 10 nM
Protocol: (§1) Cells are cultured and maintained at 37° C. in a humidified atmosphere containing 5% CO2 as described above. […] After 12-18 hours (Day 1), cells are transfected with Scramble or MADD siRNA at 10 nM concentration. The sequences of siRNAs (double-stranded) used are:
(§2) On Day 4, when cells are properly adhered and retained their shape in 96-well plates, drugs are added. All drugs are diluted in complete media on the same day prior to the addition to the cells. In untreated cells, media is replaced with complete media. Two hundred μl volume of media (with or without drugs) is used for the drug treatment assay. Plates are incubated 24 hours, 48 hours and 72 hours at 37° C. in humidified CO2 incubator.
(§3) An MTT assay is performed to determine relative survival after drug treatment as described above. MTT (3-[4,5-Dimethylthiazol-2-yl]-2,5-diphenyltetrazolium bromide; Thiazolyl blue) is purchased from Sigma Aldrich (Cat number: M5655). […] Ten μl of MTT solution is added per well of 96-well plate. Plates are incubated for 2 hours at 37° C. in the humidified CO2 incubator. After 2 hours, media is aspirated using vacuum inside the biosafety hood. Purple colored crystals formed in viable cells are dissolved by adding 100 μl of Dimethyl sulfoxide (Thermo Fisher Scientific; Cat number D128-500) Plates are kept on shaker for 10 minutes for compete dissolution of crystals and absorbance is recorded at 595 nm using Bio-Rad iMark microplate reader. Data is analyzed in MICROSOFT EXCEL® software. Relative survival is calculated with respect to absorbance of control (untreated cells) to determine the effect of transfection as well as combination treatment.
(§4) Each data set takes into account any spontaneous cell death which is observed upon transfection with Scramble siRNA; the amount of spontaneous cell death from Scramble siRNA transfection (baseline) is subtracted from the amount of cell death observed in each siRNA transfection reaction to yield a Net Percent (Net %) cell death after accounting for Scrambled siRNA-induced cell death.
(§5) Cells are cultured and maintained at 37° C. in a humidified atmosphere containing 5% CO2 as described above. […] After 12-18 hours (Day 1), cells are transfected with Scramble or MADD siRNA at 10 nM concentration. The sequences of siRNAs (double stranded) used are:
as §3, with “D128-500).” for “D128-500)”
as §2, with “24 h,” for “24 hours,”, “48 h” for “48 hours”

[2] = system: PLC/PRF/5 hepatic cancer cells; details: siRNA 10 nM
Protocol: as §1, §2, §3, §4, §5
as §3, with “D128-500).” for “D128-500)”
as §2, with “24 h,” for “24 hours,”, “48 h” for “48 hours”

[3] = system: JIMT1 breast cancer cells; details: Doxorubicin 0.075 μM, siRNA 10 nM, 24 hours post Doxorubicin treatment
Protocol: (§6) Cells are cultured and maintained at 37° C. in a humidified atmosphere containing 5% CO2 as described above. On Day 0, Cells are seeded in […] tissue culture dishes (Corning; Cat Number: 353003) to attain 60-70% confluence. In parallel, cells are also seeded in one 96-well plate (Corning; Cat number: 353072) for analysis of survival before reseeding. After 12-18 hours (Day 1), cells are transfected with Scramble or MADD siRNA at 10 nM concentration. The sequences of siRNAs (double stranded) used are:
as §2, with “added. Doxorubicin was added at a working concentration of 5.0 nM, 9.375 nM, 0.075 μM, 0.25 μM, 0.5 μM, and 0.8 μM.” for “added.”
(§7) An MTT assay is performed to determine relative survival after drug treatment as described above. MTT (3-[4,5-Dimethylthiazol-2-yl]-2,5-diphenyltetrazolium bromide; Thiazolyl blue) is purchased from Sigma Aldrich (Cat number: M5655). MTT is dissolved in sterile DPBS at the concentration of 5 mg/ml and filtered through […] syringe filter (Corning; Cat number: 431220). Ten μl of MTT solution is added per well of 96-well plate. Plates are incubated for 2 hours at 37° C. in the humidified CO2 incubator. After 2 hours, media is aspirated using vacuum inside the biosafety hood. Purple colored crystals formed in viable cells are dissolved by adding 100 μl of Dimethyl sulfoxide (Thermo Fisher Scientific; Cat number D128-500). Plates are kept on shaker for 10 minutes for compete dissolution of crystals and absorbance is recorded at 595 nm using Bio-Rad iMark microplate reader. Data is analyzed in MICROSOFT EXCEL® software. Relative survival is calculated with respect to absorbance of control (untreated cells) to determine the effect of transfection as well as combination treatment.
as §4

[4] = system: N87 gastric carcinoma cells; details: Doxorubicin 0.8 μM, siRNA 10 nM, 72 hours post Doxorubicin treatment
Protocol: as §6
as §2, with “added. Doxorubicin was added at a working concentration of 5.0 nM, 9.375 nM, 0.075 μM, 0.25 μM, 0.5 μM, and 0.8 μM.” for “added.”
as §7, §4

[5] = system: HTH7 thyroid cancer cells; details: siRNA 10 nM
Protocol: as §5, §2, §3, §4

[6] = Sorafinib 0.625 μM, 48 hours post Sorafinib treatment
[7] = Sorafinib 0.375 μM, 24 hours post Sorafinib treatment
[8] = 5-flurouracil 25 μM, 72 hours post 5-flurouracil treatment
[9] = Gemcitabine 1 μM, 48 hours post Gemcitabine treatment
[10] = TRAIL 6.25 ng/ml, 72 hours post TRAIL treatment
[11] = Cisplatin 1.875 μM, 24 hours post Cisplatin treatment
[12] = Gemcitabine 0.03125 μM, 24 hours post Gemcitabine treatment
[13] = TRAIL 50 ng/ml, 24 hours post TRAIL treatment
[14] = Cisplatin 1.25 μM, 72 hours post Cisplatin treatment
[15] = Cisplatin 5 μM, 24 hours post Cisplatin treatment

Molecule	Net % cell death after accounting for Scrambled siRNA [1, 6]	Observed % Cell death [1, 6] [%]	Net % cell death after accounting for Scrambled siRNA [2, 7]	Observed % Cell death [2, 7] [%]	Observed % Cell death [1, 8] [%]	Net % cell death after accounting for Scrambled siRNA [1, 9]	Observed % Cell death [1, 9] [%]	Observed % Cell death [1, 10] [%]	Net % cell death after accounting for Scrambled siRNA [2, 11]	Observed % Cell death [2, 11] [%]	Net % cell death after accounting for Scrambled siRNA [2, 12]	Observed % Cell death [2, 12] [%]	Net % cell death after accounting for Scrambled siRNA [2, 13]	Observed % Cell death [2, 13] [%]	Observed % Cell death [3] [%]	Observed % Cell death [4] [%]	Net % cell death after accounting for Scrambled siRNA [5, 14]	Observed % Cell death [5, 14] [%]	Net % cell death after accounting for Scrambled siRNA [5, 15]	Observed % Cell death [5, 15] [%]	also measured
CNC(=O)c1cc(Oc2ccc(NC(=O)Nc3ccc(Cl)c(C(F)(F)F)c3)cc2)ccn1 [Sorafinib]	12%	12	13%	13	–	–	–	–	–	–	–	–	–	–	–	–	–	–	–	–	–
MADD siRNA: siRNA targeting exon 13L of the MADD splice variant of the IG20 gene; SEQ ID NO: 4, 5′-GAUUGUCAUAGAUUCGCCGTT-3′ (chemistry not given here)	5% and 14 − 9 = 5%	14	20% and 25 − 5 = 20%	25	20	5% and 14 − 9 = 5%	14	20	20% and 25 − 5 = 20%	25	20% and 25 − 5 = 20%	25	20% and 25 − 5 = 20%	25	59	21	54% and 54 − 0 = 54%	54	6% and 6 − 0 = 6%	6	–
Scrambled siRNA: non-specific Scramble siRNA, negative control; SEQ ID NO: 5, 5′-UUGCUAAGCGUCGGUCAAUTT-3′ (chemistry not given here)	9 − 9 = 0%	9	5 − 5 = 0%	5	17	9 − 9 = 0%	9	17	5 − 5 = 0%	5	5 − 5 = 0%	5	5 − 5 = 0%	5	33	14	0 − 0 = 0%	0	0 − 0 = 0%	0	Net % cell death after accounting for Scrambled siRNA [1, 8]: 17 − 17 = 0%; Net % cell death after accounting for Scrambled siRNA [1, 10]: 17 − 17 = 0%; Net % cell death after accounting for Scrambled siRNA [3]: 33 − 33 = 0%; Net % cell death after accounting for Scrambled siRNA [4]: 14 − 14 = 0%
B1	–	–	–	–	–	–	–	7	–	–	–	–	0%	0	–	–	–	–	–	–	Net % cell death after accounting for Scrambled siRNA [1, 10]: 7%
